Marks after values point to notes of the source that are not given here.

Results on 10 compounds are retold here after patent US11045745B2, “Reactive extraction of water” (University of Pittsburgh—Of the Commonwealth System of …, priority 2017, dated 2021).

Holding throughout (format): physicochemical
The nature of data set [1]: Ketone hydration to diol equilibrium constant by room temperature NMR (Technique 1). The settings on record: for KH,app at 20 ± ° C. (1H) / KH,app at 20 ± ° C. (19F): d6-DMSO/H2O (1/1, mol/mol); for KH,app at 20 ± ° C. (1H): 1H NMR; for KH,app at 20 ± ° C. (19F): 19F NMR. As for the experimental part: (§1) Ketone hydration to diol equilibrium constants (KH) and thermodynamic parameters for Example compounds were measured by NMR by adapting techniques from the literature [Bushman et al., Berichte der Bunsengesellschaft für physikalische Chemie, 84: 41-44 (1980); Greenzaid et al., J. Amer. Chem. Soc. 89: 749-756 (1967); and R. Stewart and J. D. Van Dyke, Can. J. Chem. 50: 1992-1999 (1972)] using either Technique 1 (IIa) or Technique 2 (IIb), further deviations to the general methods are noted with those Examples. D2O concentration was minimized to reduce the isotope effect (˜20% according to Bushman 1980).
(§2) The conversion from ketone to diol results in an upfield change in nuclear chemical shift. This change in nuclear resonance frequency can then be used to distinguish between ketone and diol peaks in the NMR spectrum. Since area integration of NMR peaks is directly related to the number of atoms resonating at that frequency, the area ratio between diol and ketone peaks can be used to calculate equilibrium constants. Assuming water is in high excess relative to the ketone its activity can be treated as unity resulting in the KH being only dependent on the relative peak integration ratio of diol/ketone:
In many Examples, only a single resonance for each species was available for to determine the diol/ketone ratio. Where available equilibrium constants were calculated by averaging multiple resonance together normalized by number of hydrogens associated with each of them.
Due to the insolubility of some ketones in water, DMSO was used as a co-solvent at 50% by mole. Equilibrium constants obtained with DMSO as a co-solvent are only apparent constants (KH,app) since this alters the activities of the compounds relative to a pure water solvent. […] J. Chem. 50: 1992-1999 (1972)].
In a volumetric flask, ketones were dissolved to a concentration of approximately 0.5 M in 50 mol % d^6-DMSO/H2O. Solutions were left to equilibrate overnight then transferred to an NMR tube for analysis. Solutions were measured by ^1H NMR at (400 MHz) or ^19F NMR (376 MHz) at ambient temperature (20±1° C.).
(§3) This should not affect the measured hydration equilibrium greatly though since water is in such high excess. From Examples 2-2 to 2-5, the tunability of the hydration constant by altering the substituent on the benzyl ring is readily apparent.

Data set [2] in a line: Solubility in water (remark on sample preparation).
Text: as §3

A short description of data set [3]: Ketone hydration equilibrium and thermodynamic parameters by variable temperature NMR (Technique 2), van't Hoff fit. The settings on record: for ΔG ° / ΔH ° / −TΔS °: van't Hoff fit; for KH at 25° C. (KH,app): apparent constant. As for the experimental part:
as §1, §2
For a select set of compounds a series of variable temperature NMR measurements (IIB: Technique 2) were made to extract reaction standard enthalpy)(ΔH°) and entropy(ΔS°) contributions to free energy of hydration)(ΔG°). Equilibrium constants versus temperature data were fit to the van't Hoff equation to determine ΔH°, ΔS°, and ΔG°; changes in heat capacity were assumed to be negligible:
In a volumetric flask (1.00, 2.00, or 10.00 mL) ketones were dissolved to a concentration of approximately 0.5 M in solvents composed of either D2O/H2O (5/95, v/v; method 2a) or d^6-DMSO/DMSO/H2O (10/40/50 by moles; method 2b). The solution was left to equilibrate at room temperature overnight then transferred to a standard NMR tube.
A series of 1H NMR (400 MHz)measurements were made with variable temperature control (0.1° C. precision) ranging from 25-65° C., typically in 10° C. increments. At each increment once the temperature had stabilized to within ±0.2° C. of the goal, samples were equilibrated for 5 minutes prior to the measurement.
The van't Hoff equation was then fit to a plot of KH vs. temperature; energy standard deviation were calculated from the fit of the equation to the raw data.
Examples 2-6 and 2-11 were prepared using variations to the standard procedure. Example 2-6 was prepared with a concentration of 50 mM, so that it was soluble in water. For Example 2-11, a small amount of enol was also observed (about 0.08 relative to ketone). To account for this, we calculated KH for Example 2-11 as diol/(ketone+enol), assuming enol formation from the ketone is reversible.

As for `CC(=O)C(C)(C)[N+](=O)[O-]` [Example 2-1, 3-methyl-3-nitrobutan-2-one], in data set [1] (D2O/H2O (5/95, v/v), 23 mM), the “KH,app at 20 ± ° C.” value amounted to 0.22. Moreover, in data set [2], the solubility in water entry is listed as “low solubility in water”.

As to `CC(F)(F)C(=O)c1ccccc1` [Example 2-2, 2,2-difluoro-1-phenyl-1-propanone], in data set [1], the “KH,app at 20 ± ° C. (1H)” value was determined as 2.8 and the “KH,app at 20 ± ° C. (19F)” value is 3.3.

`COc1ccc(C(=O)C(F)(F)F)cc1` [Example 2-3]: in data set [1], the “KH,app at 20 ± ° C. (1H)” value is reported as 21 and the “KH,app at 20 ± ° C. (19F)” value is recorded as 23.

Turning to `O=C(c1ccc(F)cc1)C(F)(F)F` [Example 2-4], the “KH,app at 20 ± ° C. (19F)” value in data set [1] is recorded as 500 (^19F).

Turning to `O=C(c1ccccc1)C(F)(F)F` [Example 2-5], the “KH,app at 20 ± ° C. (19F)” value in data set [1] was 370 (^19F).

With `CC(=O)C(C)(C)C#N` [Example 2-6], in data set [3] (D2O/H2O (5/95, v/v)), the “KH at 25° C.” value was 0.063, the “ΔG °” value was 1.63 ± 0.48 kcal/mol, the “ΔH °” value was -5.86 ± 0.359 kcal/mol and the “−TΔS °” value came out at 7.48 ± 0.335 kcal/mol.

With `O=C1CCCCC1F` (stereo not drawn) [Example 2-8], in data set [3] (DMSO/H2O (1/1, mol/mol)), the “KH at 25° C. (KH,app)” value is given as 0.52^a, the “ΔG °” value turned out to be 0.96 ± 0.17 kcal/mol, the “ΔH °” value was -5.35 ± 0.096 kcal/mol and the “−TΔS °” value came to 6.31 ± 0.14 kcal/mol.

`O=C(CF)CF` [Example 2-9]: in data set [3] (D2O/H2O (5/95, v/v)), the “KH at 25° C.” value was found to be 27, the “ΔG °” value is -1.94 ± 0.24 kcal/mol, the “ΔH °” value was -7.5 ± 0.17 kcal/mol and the “−TΔS °” value worked out at 5.57 ± 0.17 kcal/mol.

Consider `CC(=O)C(C)=O` [Example 2-10], for which, in data set [3] (D2O/H2O (5/95, v/v)), the “KH at 25° C.” value amounted to 2.5, the “ΔG °” value is -0.526 ± 0.359 kcal/mol, the “ΔH °” value was -5.98 ± 0.359 kcal/mol and the “−TΔS °” value was 5.45 ± 0.359 kcal/mol.

For the compound `CCC(=O)C(C)=O` [Example 2-11], in data set [3] (D2O/H2O (5/95, v/v)), the “KH at 25° C.” value was determined as 1.5, the “ΔG °” value is -0.263 ± 0.12 kcal/mol, the “ΔH °” value is -5.47 ± 0.12 kcal/mol and the “−TΔS °” value is 5.21 ± 0.12 kcal/mol. Moreover, in data set [3] (DMSO/H2O (1/1, mol/mol)), the “KH at 25° C. (KH,app)” value is 0.45^a, the “ΔG °” value is 0.48 kcal/mol, the “ΔH °” value is -5.74 kcal/mol and the “−TΔS °” value was 6.21 kcal/mol. Besides, in data set [3] (NMR), the “enol observed relative to ketone” value is “about 0.08”.
